From patent publication US20260241046A1, “PROSTATE-SPECIFIC MEMBRANE ANTIGEN RECEPTOR-TARGETING RADIOPHARMACEUTICALS AND USES THEREOF” (Nuclidium AG, priority 2024, published 2026)
Values joined by “and” are separate entries in the source; they are usually repeats but may differ in a detail not shown here. Identical values can stand only once.

Key:
[1] = Shelf life at room temperature by reverse-phase radio-HPLC; type: physicochemical
Method: The shelf life of [^61Cu]Cu-NODAGA-PSMA I&T was assessed at room temperature in the reaction solution and the injection formulation at various time points after EoS. At pre-defined time points (up to 12 h), an aliquot was analyzed by radio-HPLC. The radiochemical purity was determined by analytical reverse-phase radio-HPLC using a Macherey Nagel Nucleodur ISIS C18 (5 μm, 250×4.6 mm) column. The results indicated a stability of over 95% up to 12 hours (Table 22).

[2] = Dosimetry calculations (OLINDA/EXM 1.0, extrapolated human dose)
From the text: The data from the pharmacokinetic studies (Table 26) was decay-corrected using the half-life of ^61Cu to extrapolate the human dose. Since there were no measurements of the radioactivity accumulation in red marrow, this was estimated assuming a linear relationship between the blood and the red marrow residence times. The proportionality factor used was the ratio between the red marrow mass and human blood mass. The residence time (RT) for the stomach was approximated to be equal to the RT of the stomach wall since the animals were subjected to fasting before the biodistribution experiments. The heart was emptied from blood before measurements, and it was assumed that the total measured heart uptake was associated with the heart wall.
OLINDA/EXM 1.0 was used to integrate the fitted time-activity curves and to estimate the organ and effective doses using standard human whole-body adult female and male phantom models. Since the salivary glands are PSMA-positive and the organ is not included in the phantom, the dose absorbed was calculated separately, assuming that the weight of the human salivary gland is 30 g.

PSMA-expressing tissues = test system: PSMA-expressing tissues
Method: The specificity of [^61Cu]Cu-NODAGA-PSMA I&T for PSMA-expressing tissues was evaluated in LNCaP xenograft mice through a blocking study. The mice were first administered with 1.3 μmol (300 μg) of 2-PMPA as a blocking agent, followed by an intravenous injection of 4-8 MBq ([…]) [^61Cu]Cu-NODAGA-PSMA I&T diluted to 100 μL in saline in the tail vein. The animals (n=4) were sacrificed 1 hour post-injection, and the organs were collected, weighed and counted in a gamma counter as already described. The results are expressed as a percentage of injected activity per gram (% IA/g) as presented in Table 27 and are compared with the results obtained from biodistribution studies.
PET/CT imaging was also performed at 1 hour post-injection.

SMILES: O=C([O-])CN1CCN(CC(=O)[O-])CCN([C@H](CCC(=O)N[C@H](Cc2ccc(O)c(I)c2)C(=O)N[C@H](Cc2ccccc2)C(=O)N[C@H](CCCCNC(=O)CCCCCCC(=O)NCCCC[C@H](NC(=O)N[C@@H](CCC(=O)O)C(=O)O)C(=O)O)C(=O)O)C(=O)O)CC1.[61Cu+2] [[^61Cu]Cu-NODAGA-PSMA I&T]
- RCP by HPLC ([1]; Injection formulation): 99.0 ± 0.2%
- RCP up to 3 h (n = 3) ([1]; Injection formulation): 99.5 ± 0.2%
- RCP up to 6 h (n = 3) ([1]; Injection formulation): 99.0 ± 0.5%
- RCP up to 9 h (n = 3) ([1]; Injection formulation): 99.1 ± 0.5%
- RCP up to 12 h (n = 2) ([1]; Injection formulation): 99.7 ± 0.41%
- RCP by HPLC ([1]; Reaction solution): 99.4 ± 0.4%
- RCP up to 3 h (n = 3) ([1]; Reaction solution): 99.6 ± 0.2%
- RCP up to 6 h (n = 3) ([1]; Reaction solution): 99.5 ± 0.7%
- RCP up to 9 h (n = 3) ([1]; Reaction solution): 99.1 ± 0.8%
- RCP up to 12 h (n = 2) ([1]; Reaction solution): 99.7 ± 0.1%
- stability ([1]; up to 12 hours): over 95%
- Effective Dose ([2]; Female): 0.0095 mSv/MBq and 9.54E−03 mSv/MBq
- Total absorbed dose, Adrenals ([2]; Female): 9.86E−02 mGy/MBq
- Total absorbed dose, Brain ([2]; Female): 5.59E−05 mGy/MBq
- Total absorbed dose, Breasts ([2]; Female): 1.23E−03 mGy/MBq
- Total absorbed dose, Gallbladder Wall ([2]; Female): 1.37E−02 mGy/MBq
- Total absorbed dose, Heart Wall ([2]; Female): 5.03E−03 mGy/MBq
- Total absorbed dose, Kidneys ([2]; Female): 1.00E+00 mGy/MBq
- Total absorbed dose, LLI Wall ([2]; Female): 3.24E−03 mGy/MBq
- Total absorbed dose, Liver ([2]; Female): 1.83E−02 mGy/MBq
- Total absorbed dose, Lungs ([2]; Female): 4.86E−03 mGy/MBq
- Total absorbed dose, Muscle ([2]; Female): 4.03E−03 mGy/MBq
- Total absorbed dose, Osteogenic Cells ([2]; Female): 3.93E−03 mGy/MBq
- Total absorbed dose, Ovaries ([2]; Female): 4.76E−03 mGy/MBq
- Total absorbed dose, Pancreas ([2]; Female): 3.18E−02 mGy/MBq
- Total absorbed dose, Red Marrow ([2]; Female): 6.94E−03 mGy/MBq
- Total absorbed dose, Skin ([2]; Female): 1.82E−03 mGy/MBq
- Total absorbed dose, Small Intestine ([2]; Female): 2.78E−02 mGy/MBq
- Total absorbed dose, Spleen ([2]; Female): 5.65E−02 mGy/MBq
- Total absorbed dose, Stomach Wall ([2]; Female): 1.08E−02 mGy/MBq
- Total absorbed dose, Thymus ([2]; Female): 1.11E−03 mGy/MBq
- Total absorbed dose, Thyroid ([2]; Female): 2.72E−04 mGy/MBq
- Total absorbed dose, Total Body ([2]; Female): 9.46E−03 mGy/MBq
- Total absorbed dose, ULI Wall ([2]; Female): 9.78E−03 mGy/MBq
- Total absorbed dose, Urinary Bladder Wall ([2]; Female): 1.60E−03 mGy/MBq
- Total absorbed dose, Uterus ([2]; Female): 3.94E−03 mGy/MBq
- Effective Dose ([2]; Male): 0.0142 mSv/MBq and 1.42E−02 mSv/MBq
- Total absorbed dose, Adrenals ([2]; Male): 8.39E−02 mGy/MBq
- Total absorbed dose, Brain ([2]; Male): 6.18E−05 mGy/MBq
- Total absorbed dose, Gallbladder Wall ([2]; Male): 2.30E−02 mGy/MBq
- Total absorbed dose, Heart Wall ([2]; Male): 6.94E−03 mGy/MBq
- Total absorbed dose, Kidneys ([2]; Male): 1.74E+00 mGy/MBq
- Total absorbed dose, LLI Wall ([2]; Male): 4.64E−03 mGy/MBq
- Total absorbed dose, Liver ([2]; Male): 2.51E−02 mGy/MBq
- Total absorbed dose, Lungs ([2]; Male): 6.11E−03 mGy/MBq
- Total absorbed dose, Muscle ([2]; Male): 6.00E−03 mGy/MBq
- Total absorbed dose, Osteogenic Cells ([2]; Male): 5.31E−03 mGy/MBq
- Total absorbed dose, Pancreas ([2]; Male): 4.83E−02 mGy/MBq
- Total absorbed dose, Red Marrow ([2]; Male): 1.11E−02 mGy/MBq
- Total absorbed dose, Skin ([2]; Male): 2.90E−03 mGy/MBq
- Total absorbed dose, Small Intestine ([2]; Male): 3.79E−02 mGy/MBq
- Total absorbed dose, Spleen ([2]; Male): 7.37E−02 mGy/MBq
- Total absorbed dose, Stomach Wall ([2]; Male): 1.71E−02 mGy/MBq
- Total absorbed dose, Testes ([2]; Male): 5.39E−04 mGy/MBq
- Total absorbed dose, Thymus ([2]; Male): 1.67E−03 mGy/MBq
- Total absorbed dose, Thyroid ([2]; Male): 4.99E−04 mGy/MBq
- Total absorbed dose, Total Body ([2]; Male): 1.38E−02 mGy/MBq
- Total absorbed dose, ULI Wall ([2]; Male): 1.43E−02 mGy/MBq
- Total absorbed dose, Urinary Bladder Wall ([2]; Male): 2.06E−03 mGy/MBq
- absorbed dose in the kidneys ([2]; after injecting 100-150 MBq): 0.17-0.26 Gy
- Biodistribution with 2-PMPA blocking, Adrenal (PSMA-expressing tissues; 1 hour post-injection): 0.96±0.87 % IA/g
- Biodistribution with 2-PMPA blocking, Blood (PSMA-expressing tissues; 1 hour post-injection): 0.44 ± 0.50 % IA/g
- Biodistribution with 2-PMPA blocking, Bone (PSMA-expressing tissues; 1 hour post-injection): 0.39 ± 0.24 % IA/g
- Biodistribution with 2-PMPA blocking, Heart (PSMA-expressing tissues; 1 hour post-injection): 0.34 ± 0.27 % IA/g
- Biodistribution with 2-PMPA blocking, Intestine (PSMA-expressing tissues; 1 hour post-injection): 0.87 ± 0.50 % IA/g
- Biodistribution with 2-PMPA blocking, Kidneys (PSMA-expressing tissues; 1 hour post-injection): 4.59±0.50 % IA/g
- Biodistribution with 2-PMPA blocking, LNCaP-tumor (PSMA-expressing tissues; 1 hour post-injection): 0.68±0.54 % IA/g
- Biodistribution with 2-PMPA blocking, Liver (PSMA-expressing tissues; 1 hour post-injection): 1.29 ± 0.53 % IA/g
- Biodistribution with 2-PMPA blocking, Lung (PSMA-expressing tissues; 1 hour post-injection): 0.67 ± 0.40 % IA/g
- Biodistribution with 2-PMPA blocking, Muscle (PSMA-expressing tissues; 1 hour post-injection): 0.32 ± 0.36 % IA/g
- Biodistribution with 2-PMPA blocking, Pancreas (PSMA-expressing tissues; 1 hour post-injection): 0.29 ± 0.19 % IA/g
- Biodistribution with 2-PMPA blocking, Salivary glands (PSMA-expressing tissues; 1 hour post-injection): 0.51 ± 0.30 % IA/g
- Biodistribution with 2-PMPA blocking, Spleen (PSMA-expressing tissues; 1 hour post-injection): 0.33±0.16 % IA/g
- Biodistribution with 2-PMPA blocking, Stomach (PSMA-expressing tissues; 1 hour post-injection): 0.62 ± 0.28 % IA/g
- in vivo stability (transchelation) (PSMA-expressing tissues; LNCaP xenograft mice): stable in vivo, with limited transchelation phenomena
